Data as given in PubChem BioAssay (NCI).
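These data come from cells grown in 96-well plates and exposed to compound for 48 hours at five concentrations. TGI: total growth inhibition.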

Columns and labels:
Assay in all cases: NCI tumour cell line growth inhibition, 48 h
DLD-1 colon = test system: DLD-1 colon
DMS 273 small cell lung = test system: DMS 273 small cell lung
KM20L2 colon = test system: KM20L2 colon
M19-MEL melanoma = test system: M19-MEL melanoma
P388 leukemia = test system: P388 leukemia
P388/ADR leukemia = test system: P388/ADR leukemia
SN12K1 renal = test system: SN12K1 renal
XF 498 CNS = test system: XF 498 CNS

Measured: TGI

O=S(=O)(O)c1cc2ccc1/C=C\c1ccc(cc1S(=O)(=O)O)N=Nc1ccc(c(S(=O)(=O)O)c1)/C=C\c1ccc(cc1S(=O)(=O)O)N=N2
> 100 µM: DLD-1 colon | DMS 273 small cell lung | KM20L2 colon | M19-MEL melanoma | P388 leukemia | P388/ADR leukemia | SN12K1 renal | XF 498 CNS
